# According to patent publication US8114865B2, “Indazole derivatives as kinase inhibitors for the treatment of cancer” (Nerviano Medical Sciences S.R.L., priority 2006, dated 2012):
# Tests used:
# Aurora-2 = target: T1, Aurora-2 (Homo sapiens, UniProt O14965); assay: Biochemical assay for inhibitors of Aurora-2 kinase activity; conditions: read-out: Aur2 IC50
# T1 sequence (O14965 1-403): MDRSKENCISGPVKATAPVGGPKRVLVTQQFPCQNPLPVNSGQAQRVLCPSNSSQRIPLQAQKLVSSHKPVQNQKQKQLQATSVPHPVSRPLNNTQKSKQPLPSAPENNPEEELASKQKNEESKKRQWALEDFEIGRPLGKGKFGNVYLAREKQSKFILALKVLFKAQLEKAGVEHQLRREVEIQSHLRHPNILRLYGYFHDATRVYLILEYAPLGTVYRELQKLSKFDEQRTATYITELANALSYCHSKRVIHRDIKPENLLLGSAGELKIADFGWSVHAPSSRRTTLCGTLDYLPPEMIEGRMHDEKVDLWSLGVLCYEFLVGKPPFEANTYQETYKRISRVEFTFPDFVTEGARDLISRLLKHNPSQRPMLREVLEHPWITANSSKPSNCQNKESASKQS
# Description: The in vitro kinase inhibition assay was conducted mimilarly as described for IGF-1R.
# The kinase buffer was composed of 50 mM HEPES, pH 7.0, 10 mM MgCl2, 1 mM DTT, 3 microM Na3VO4, and 0.2 mg/mL BSA.
# The kinase assay was run with an enzyme concentration of 2.5 nM, 10 microM ATP, 1 nM ^33P-γ-ATP, and 8 microM substrate, composed of 4 LRRWSLG repeats.
# [1] = tested on: IGF1-induced S6 phosphorylation; assay: Growth factor induced S6 ribosomal protein phosphorylation in primary human fibroblasts; assay type: cell-based; conditions: normal human dermal fibroblasts (NHDF), 10 nM IGF-1
# Description: Phosphorylation of S6 ribosomal protein in response to growth factor stimulation of normal human dermal fibroblasts (NHDF) was used to assess compound potency in inhibiting IGF-1 induced signal transduction in cells, and selectivity towards EGF and PDGF stimulus. NHDF cells obtained from PromoCell (Heidelberg, Germany), were maintained at 37° C. in a humidified atmosphere with 5% CO2 in complete Fibroblast Growth Medium (PromoCell). For assay, NHDF were seeded in 384-well tissue culture plates (clear- and flat-bottomed black plates; Matrix Technologies Inc., Hudson, N.H., USA) at a density of 5000 cells/well in serum-free medium containing 0.1% bovine serum albumin (BSA) and incubated for 5 days. Starved cells were treated for 1 hour with desired doses of compounds and then stimulated for a further 2 hours with either 10 nM IGF-1 (Invitrogen Corp., CA, USA), 10 nM EGF (Gibco BRL, USA) or 1 nM PDGF-B/B (Roche Diagnostics GmbH, Germany). Cells were then fixed in PBS/3.7% paraformaldehyde for 20 minutes at room temperature, washed ×2 with PBS, and permeabilized with PBS/0.3% Triton X-100 for 15 minutes. Wells were then saturated with PBS/1% non-fat dry milk (Bio-Rad Laboratories, Hercules, Calif., USA) for 1 hour, and then probed for 1 hour at 37° C. with anti-phospho-S6 (Ser 235/236) antibody (Cell Signaling Technology, Beverly, Mass., USA, cat. #2211) at 1/200 dilution in PBS/1% milk/0.3% Tween 20. Wells were then washed twice with PBS, and incubated for 1 hour at 37° C. with PBS/1% milk/0.3% Tween 20+1 microg/mL DAPI (4,6-diamidino-2-phenylindole)+ 1/500 Goat anti-rabbit Cy5™-conjugated secondary antibody (Amersham Biosciences, Little Chalfont, Buckinghamshire, UK). […] Fluorescence images in the DAPI and Cy5™ channels were automatically acquired, stored and analysed using a Cellomics ArrayScan™ IV instrument (Cellomics, Pittsburgh, USA); the Cellomics Cytotoxicity Algorithm was used to quantify cytoplasmic fluorescence associated with phospho-S6 (Cy5™ signal parameter: “Mean Lyso Mass-pH”) for each cell in 10 fields/well, and eventually expressed as a mean population value. […]
# ALK = target: T2, ALK (Homo sapiens, UniProt Q9UM73); assay: Biochemical assay for inhibitors of ALK kinase activity
# T2 construct: ALK cytoplasmic domain, corresponding to residues 1060-1620; made in house; host or cells: Sf21 insect cells (baculovirus)
# T2 sequence (Q9UM73 1060-1620): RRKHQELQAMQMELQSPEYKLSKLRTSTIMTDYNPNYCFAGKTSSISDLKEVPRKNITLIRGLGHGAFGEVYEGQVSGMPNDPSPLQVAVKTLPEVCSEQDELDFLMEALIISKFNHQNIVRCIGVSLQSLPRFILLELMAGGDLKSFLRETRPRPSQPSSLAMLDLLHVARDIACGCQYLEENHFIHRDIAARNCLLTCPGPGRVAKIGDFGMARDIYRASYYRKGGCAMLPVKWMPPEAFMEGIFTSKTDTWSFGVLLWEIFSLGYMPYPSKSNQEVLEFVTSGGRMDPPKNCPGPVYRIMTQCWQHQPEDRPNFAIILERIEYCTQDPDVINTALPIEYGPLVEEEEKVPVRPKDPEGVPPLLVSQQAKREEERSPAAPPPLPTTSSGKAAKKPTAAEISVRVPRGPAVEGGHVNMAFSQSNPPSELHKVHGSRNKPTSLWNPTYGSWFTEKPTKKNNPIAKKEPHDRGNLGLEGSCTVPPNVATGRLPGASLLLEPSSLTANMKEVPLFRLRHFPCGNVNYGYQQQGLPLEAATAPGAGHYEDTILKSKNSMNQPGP
# Excerpt: ALK cytoplasmic domain, corresponding to residues 1060-1620 (the numbers of the amino acid residues refer to the Genbank accession number NP 004295.2) was PCR amplified from a human testis cDNA library.
# For cloning purposes, the oligonucleotides included attB sites in order to obtain an attB-flanked PCR product suitable for cloning using the Gateway technology (Invitrogen). Furthermore, for purification purposes, forward primer included a PreScission cleavage site (Amersham Biosciences). The resulting PCR product was cloned in the baculovirus expression vector pVL1393 (Invitrogen), Gateway-modified. For expression and purification purposes, a GST tag was added N-terminal to the ALK cytoplasmic domain. Cloning was performed according to the protocols described in the Gateway manual (Invitrogen).
# Baculovirus was generated by cotransfecting Sf9 insect cells with expression vector and the viral DNA using the BaculoGold™ transfection kit (Pharmingen).
# Recombinant protein was produced by infecting Sf21 insect cells at the density of 1×10^6 cells/mL with 30 mL viral supernatant per billion cells with shaking at 27° C. After 48 hours of infections the cells were recovered, pelleted and frozen at −80° C.
# Cells were resuspended in lysis buffer (Tris-HCl 50 mM pH8, NaCl 150 mM, CHAPS 0.2%, DTT 20 mM, glycerol 20%, “Complete” protease inhibitor cocktail (Roche Diagnostics), Na3VO4 1 mM and lysed by liquid extrusion with a Gaulin homogenizer (Niro Soavi Italy). The lysate was cleared by centrifugation at 20000 g for 30 minutes and loaded on a Glutathione Sepharose 4B (Amersham Biosciences) column.
# After extensive wash, recombinant protein was eluted with 10 mM Glutathione in 100 mM Tris-HCl pH8, 10% glycerol.
# Affinity purified GST-ALK was loaded on a Heparin Sepharose™ FF (Amersham Biosciences) column and eluted with 50 mM NaCl, 25 mM TRIS pH 7.5, 2 mM DTT, 20% glycerol.
# The eluted fractions were pooled and dialyzed against 150 mM NaCl, 50 mM Tris-HCl pH 7.4, 2 mM DTT, 20% glycerol.
# The in vitro kinase inhibition assay was conducted in the same way as described for IGF-1R. […]
IC50 (Aurora-2),IC50 (ALK),Structure (SMILES),IC50 [1]
26 nM,340 nM,"CN1CCN(c2ccc(C(=O)Nc3n[nH]c4ccc(S(=O)(=O)c5ccccc5)cc34)cc2)CC1 [Compound 1, N-(5-Benzenesulfonyl-1H-indazol-3-yl)-4-(4-methyl-piperazin-1-yl)-benzamide]",> 10000 nM
9 nM,34 nM,"CN1CCN(c2ccc(C(=O)Nc3n[nH]c4ccc(S(=O)(=O)c5ccccc5)cc34)c(NC(=O)c3ccc[nH]3)c2)CC1 [Compound 33, 1H-pyrrole-2-carboxylic acid [2-(5-benzenesulfonyl-1H-indazol-3-ylcarbamoyl)-5-(4-methyl-piperazin-1-yl)-phenyl]amide]",270 nM
19 nM,170 nM,"CN1CCN(c2ccc(C(=O)Nc3n[nH]c4ccc(S(=O)(=O)c5ccccc5)cc34)c(NC(=O)[C@@H]3CCCO3)c2)CC1 [Compound 36, (S)-Tetrahydro-furan-2-carboxylic acid [2-(5-benzenesulfonyl-1H-indazol-3-ylcarbamoyl)-5-(4-methyl-piperazin-1-yl)-phenyl]-amide]",1200 nM
